Data on one molecule can be found in US8859215B2, “Cell binding assay” (GE Healthcare Bio-Sciences AB, priority 2011, dated 2014).

The test system of the experiment is Multicellular Tumor Spheroids (MTS). The experiment can be described thus: Fluorescent cell binding assay: Cy3 Annexin V binding to drug treated cells, Western blotting, normalized to actin (apoptosis assay). Type of experiment: cell-based. As for the experimental part:
Doxorubicin is an anti-cancer drugs aimed to inhibit uncontrolled cell proliferation by inducing apoptosis in cells. Multicellular Tumor Spheroids were treated with Doxorubicin and incubated with Cy 3 Annexin V. The cells are lysed and the proteins are separated and transferred to a membrane. Cy 3 Annexin V can be detected simultaneously with actin targeted by ECL Plex Cy5Western Blotting. The amount of Annexin V binding to the cells upon treatment can easily be quantified after normalization to the house-keeping protein actin.
Cancer cells, Multicellular Tumor Spheroids (MTS) (Sanitini et al. Critical Rev Oncol Hematol 2001, 36:75-87) were treated for 3 days with […] different concentrations (1 μM, 5 μM and 10 μM) of the cancer drug Doxorubicin. To determine the level of drug induced apoptosis the cells were incubated with Cy3 conjugated Annexin V. Non-bound Cy 3 Annexin V was washed away with PBS followed by cell lysis using mammalian cell protein extraction buffer (GE Healthcare). […]
The signals from bound Cy 3 Annexin V and Cy 5 actin are detected simultaneously by scanning the membrane in Cy3 and Cy5 channels using a Typhoon Imager (GE Healthcare, FIG. 2a). The image was analysed with Image Quant TL software (GE Healthcare). […] In this way any uneven sample loading is corrected for and very accurate quantification of the cells capacity to bind Annexin V is determined. […]

“Also recorded” adds a separate entry of the source.

On to `COc1cccc2c1C(=O)c1c(O)c3c(c(O)c1C2=O)C[C@@](O)(C(=O)CO)C[C@@H]3O[C@H]1C[C@H](N)[C@H](O)[C@H](C)O1` [Doxorubicin], for which the “Annexin V binding to cells (signal ratio Cy3 Annexin V : Cy5 actin), indicating apoptosis” value (cancer cells (MTS) treated for 3 days with 1 μM, 5 μM and 10 μM, compared against control (no treatment)) is reported as “dose dependent binding of Annexin V to treated cells; also recorded: dose dependent Annexin V binding to cells up to 5 μM”. For the same molecule, the “Annexin V binding to cells (signal ratio Cy3 Annexin V : Cy5 actin)” value (treatment with 10 μM for 3 days, MTS cells) was “decrease of the Annexin V binding”.
